Target: human Thrombin (Homo sapiens, UniProt P00734)
Test: In vitro assay for inhibition of Thrombin (chromogenic or fluorogenic assay)
Type: biochemical
Settings: Example 2 chromogenic assay, other Examples fluorogenic assay, read-out: thrombin inhibitory Ki
Experimental: Thrombin inhibitory activity is measured by the ability to inhibit human α-thrombin in a chromogenic assay using N-p-tosyl-gly-pro-lys p-nitroanilide as the chromogenic substrate, or in a fluorogenic assay using Rhodamine 110, bis-(CBZ-L-valyl-L-prolyl-L-arginine amide) as the fluorogenic substrate.
The compound was diluted from a 10 mM stock solution in dimethylsulfoxide at appropriate concentrations. Assay was performed at room temperature using buffer consisting of: 50 mM HEPES, 150 mM NaCl, 5 mM CaCl2, 0.1% PEG, pH 7.4. containing human Thrombin (final conc. of 1 nM). Compound and enzyme were preincubated for 15 min prior to addition of the substrate (final conc. of 100 μM). The reaction was stopped after 30 min with the addition of soybean trypsin inhibitor or H-D-PHE-PRO-ARG-Chloromethylketone. […] To obtain IC50 values the data were analysed using ActivityBase® and XLfit®.
Compounds were diluted from a 10 mM stock solution in dimethylsulfoxide at appropriate concentrations. Assay was performed at room temperature using buffer consisting of: 50 mM HEPES, 150 mM NaCl, 5 mM CaCl2, 0.1% PEG, pH 7.4. containing human Thrombin (final conc. Of 0.2 nM). Compound and enzyme were preincubated for 15 min prior to addition of the substrate (final conc. of 10 μM). The reaction was stopped after 3 hrs with the addition of H-D-PHE-PRO-ARG-Chloromethylketone. […] To obtain IC50 values the data were analysed using ActivityBase® and XLfit®.

SMILES | Ki
CCOC[C@@H](C(=O)N1CCOCC1)N1CC[C@H](NS(=O)(=O)CCc2ccc(Cl)s2)C1=O [Example 85, 2-(5-chloro-2-thienyl)-N-{(3S)-1-[(1S)-1-[(ethyloxy)methyl]-2-(4-morpholinyl)-2-oxoethyl]-2-oxo-3-pyrrolidinyl}ethanesulfonamide] | < 10 nM
CNC(=O)CN([C@H]1CCN([C@@H](COC)C(=O)N2CCOCC2)C1=O)S(=O)(=O)CCc1ccc(Cl)s1 [Example 98, N^2-{(2-(5-chloro-2-thienyl)ethyl]sulfonyl}-N^1-methyl-N^2-{(3S)-1-[(1S)-1-[(methyloxy)methyl]-2-(4-morpholinyl)-2-oxoethyl]-2-oxo-3-pyrrolidinyl}glycinamide] | < 10 nM
CS(=O)(=O)CC[C@@H](C(=O)N1CCOCC1)N1CC[C@H](NS(=O)(=O)CCc2ccc(Cl)cc2)C1=O [Example 99, 2-(4-chlorophenyl)-N-{(3S)-1-[(1S)-3-(methylsulfonyl)-1-(4-morpholinylcarbonyl)propyl]-2-oxo-3-pyrrolidinyl}ethanesulfonamide] | < 200 nM
CN(C)CC[C@@H](C(=O)N1CCOCC1)N1CC[C@H](NS(=O)(=O)CCc2ccc(Cl)s2)C1=O [Example 93, 2-(5-chloro-2-thienyl)-N-{(3S)-1-[(1S)-3-(dimethylamino)-1-(4-morpholinylcarbonyl)propyl]-2-oxo-3-pyrrolidinyl}ethanesulfonamide] | < 100 nM
CC[C@H](C)[C@@H](C(=O)N1CCOCC1)N1CC[C@H](NS(=O)(=O)/C=C(\C)c2ccc(Cl)s2)C1=O [Example 11, (1E)-2-(5-chlorothien-2-yl)-N-{(3S)-1-[(1S,2S)-2-methyl-1-(morpholin-4-ylcarbonyl)butyl]-2-oxopyrrolidin-3-yl}prop-1-ene-1-sulfonamide] | < 10 nM
O=C(C[C@@H](C(=O)N1CCOCC1)N1CC[C@H](NS(=O)(=O)CCc2ccc(Cl)s2)C1=O)OCc1ccccc1 [Example 21, Benzyl (3S)-3-[(3S)-3-({[2-(5-chlorothien-2-yl)ethyl]sulfonyl}amino)-2-oxopyrrolidin-1-yl]-4-morpholin-4-yl-4-oxobutanoate] | < 10 nM
O=C([C@H](CCN1CCOCC1)N1CC[C@H](NS(=O)(=O)CCc2ccc(Cl)s2)C1=O)N1CCOCC1 [Example 95, 2-(5-chloro-2-thienyl)-N-{(3S)-1-[(1S)-3-(4-morpholinyl)-1-(4-morpholinylcarbonyl)propyl]-2-oxo-3-pyrrolidinyl}ethanesulfonamide] | < 100 nM
CCOC[C@@H](C(=O)N1CCOCC1)N1CC[C@H](NS(=O)(=O)CCc2ccc(Cl)cc2)C1=O [Example 86, 2-(4-chlorophenyl)-N-((3S)-1-[(1S)-1-[(ethyloxy)methyl]-2-(4-morpholinyl)-2-oxoethyl]-2-oxo-3-pyrrolidinyl}ethanesulfonamide] | < 25 nM
CCSC[C@@H](C(=O)N1CCOCC1)N1CC[C@H](NS(=O)(=O)CCc2ccc(Cl)s2)C1=O [Example 75, 2-(5-chloro-2-thienyl)-N-{(3S)-1-[(1R)-1-((ethylthio)methyl]-2-(4-morpholinyl)-2-oxoethyl]-2-oxo-3-pyrrolidinyl}ethanesulfonamide] | < 50 nM
O=C([C@H](Cc1ccccc1)N1CC[C@H](NS(=O)(=O)CCc2ccc(Cl)s2)C1=O)N1CCOCC1 [Example 13, N-{(3S)-1-[(1S)-1-benzyl-2-morpholin-4-yl-2-oxoethyl]-2-oxopyrrolidin-3-yl}-2-(5-chlorothien-2-yl)ethanesulfonamide] | < 25 nM
C[C@@H](C(=O)N1CCOCC1)N1CC[C@H](NS(=O)(=O)CC2CCc3cc(Cl)ccc32)C1=O (stereo partly drawn) [Example 61, 1-(5-chloro-2,3-dihydro-1H-inden-1-yl)-N-{(3S)-1-[(1S)-1-methyl-2-(4-morpholinyl)-2-oxoethyl]-2-oxo-3-pyrrolidinyl}methanesulfonamide] | < 100 nM
CC(C)OC[C@@H](C(=O)N1CCOCC1)N1CC[C@H](NS(=O)(=O)CCc2ccc(Cl)s2)C1=O [Example 84, 2-(5-chloro-2-thienyl)-N-{(3S)-1-[(1S)-1-{[(1-methylethyl)oxy]methyl}-2-(4-morpholinyl)-2-oxoethyl]-2-oxo-3-pyrrolidinyl}ethanesulfonamide] | < 10 nM
